Earlier results on one compound are cited in US9151747B1, “Sucralose antibody and immunoassay” (Mercyhurst University, priority 2013, dated 2015).

Structures are written as SMILES.

The conditions of series [1]: background statement.
The conditions of series [2]: background statement. The source holds these as a separate data set.

Consider `OC[C@H]1O[C@H](O[C@]2(CCl)O[C@H](CCl)[C@@H](O)[C@@H]2O)[C@H](O)[C@@H](O)[C@H]1Cl` [Sucralose, sucralose], for which the “sweetness relative to table sugar” value in series [1] is given as 600 times. Besides, the “breakdown by the human body” value in series [2] was “minimal breakdown”.
